Measurements: patent US20050215544A1, “Methods of treating HIV infection” (priority 2004, published 2005)

Tests used:
[1] = system: HIV-1 LAI; experiment: microbe, parasite or virus in culture
Method: (§1) Virus and cell lines. The T-cell lines, MT-2 and PM-1 were obtained through the AIDS Research and Reference Reagent Program, NIAID, and were contributed by Dr. D. Richman and Dr. R. Gallo, respectively. Both cell lines were cultured in RPMI 1640 medium supplemented with 10% fetal bovine serum, 2 mM L-glutamine and sub-cultured twice a week. The LAI strain of HIV-1 was obtained from the Fred Hutchinson Cancer Research Center, and the Bal strain was from NIH. Both virus stocks were amplified and titered in MT-2 cells (LAI) and PM-1 cells (Bal) using a virus infectivity assay.
(§2) Drug Susceptibility and Cytotoxicity Assays. For drug susceptibility assays, MT-2 cells were infected with HIV-1 LAI (or PM-1 cells with HIV-1 Bal) at an MOI of 0.005, and seeded into 96-well microtiter plates ([…] cells/ml) containing serial dilutions of test compounds. […] Each drug ratio consisted of an array of 3-fold serial dilutions, and was performed in quadruplicate. The plates were incubated at 37° C./5% CO2. The MT-2 cells infected with HIV-1 LAI were incubated for 5 days. On day-five post-infection, 20 μl from each well was harvested and quantitated by a reverse transcriptase (RT) assay, or in samples involving non-nucleoside RT inhibitors, an MTS assay. The PM-1 cells infected with HIV-1 Bal and used for studying the combinations with CCR5 inhibitors were incubated for six days. On day-six post-infection, 20 μl from each well was harvested, 20- and 50-fold diluted and quantitated by p24 assay. Cytotoxicity assays were performed using uninfected cells, exposed to the same drug combinations, and incubated for six days. Cell viability was determined by an MTS assay. The CC50 values were calculated by using the exponential form of the median effect equation as mentioned below for calculation of EC50.
(§3) In this equation, Fa stands for “fraction affected,” and represents the fraction of the viral load that has been inactivated. […] ED50 is drug concentration that is expected to reduce the amount of virus by 50%, and m is a parameter that reflects the slope of the concentration-response curve.
In carrying out the combination experiments below, the EC50 for Compound 1 and each comparator compound was determined during the course of each study, and used in the subsequent data analysis.

[2] = system: uninfected cells; experiment: Cytotoxicity assay of the drug combinations in uninfected cells (MTS); assay type: cell-based; details: combination with Compound 1 at highest concentrations tested, six days
Method: Drug Susceptibility and Cytotoxicity Assays. […] Each drug ratio consisted of an array of 3-fold serial dilutions, and was performed in quadruplicate. The plates were incubated at 37° C./5% CO2. […] On day-five post-infection, 20 μl from each well was harvested and quantitated by a reverse transcriptase (RT) assay, or in samples involving non-nucleoside RT inhibitors, an MTS assay. The PM-1 cells infected with HIV-1 Bal and used for studying the combinations with CCR5 inhibitors were incubated for six days. On day-six post-infection, 20 μl from each well was harvested, 20- and 50-fold diluted and quantitated by p24 assay. Cytotoxicity assays were performed using uninfected cells, exposed to the same drug combinations, and incubated for six days. Cell viability was determined by an MTS assay. The CC50 values were calculated by using the exponential form of the median effect equation as mentioned below for calculation of EC50.

[3] = system: HIV-1 LAI; experiment: Two-drug combination antiviral assay with Compound 1 (combination indices, Chou and Rideout); assay type: cell-based; details: combination with Compound 1; for Combination Indices at 50% HIV Inhibition (Confidence Interval) / Combination Indices at 75% HIV Inhibition (Confidence Interval) / Combination Indices at 90% HIV Inhibition (Confidence Interval): 95% CI in parenthesis; for Overall Result of two-drug combination: all ratios and inhibition levels
Method: as §1, §2
Analysis of Drug Combination Effects. For determination of CI values, drugs were diluted in a fixed ratio and multiple ratios were analyzed. The drug serial dilutions spanned a range of concentrations near the EC50 value of each compound, so that equivalent antiviral activities could be compared. Concentration-response curves were estimated for each individual drug and every combination using the median-effect equation. The equation was fit using a nonlinear regression routine (Proc Nlin) in PC SAS version 8.01 (SAS Institute Inc., SAS Version 8.01, Cary, NC: SAS Institute Inc., 1990).
as §3
To assess antiviral effects of different drug combination treatments, combination indices (CIs) were calculated according to Chou and Rideout. The combination index was computed as CI=[D]1/[Dm]1+[D]2/[Dm]2
In this equation [Dm]1 and [Dm]2 are the concentrations of drugs that would individually produce a specific level of effect, while [D]1 and [D]2 are the concentrations of drugs in combination that would produce the same level of effect.
Theoretically, additivity is implied if the CI is equal to one, synergy if the CI is less than one, and antagonism if the CI is greater than one. […] At best, we can construct a range that contains the likely values for the CI, given the noise in the data. In this report, these ranges are reported in parentheses next to each point estimate of the CI. […] If the range fell entirely above 1.0, we would infer antagonistic behavior. If the range were to include 1.0, we would infer additivity.

[4] = Human immunodeficiency virus 1, MT2, 120 h
[5] = EC50 ratio 1:1 (Compound 1 to comparator)
[6] = EC50 ratio 1:2.5 (Compound 1 to comparator)
[7] = EC50 ratio 2.5:1 (Compound 1 to comparator)

| Compound | EC50 [1, 4] [nM] | Cytotoxicity of the drug combination [2] | Combination Indices at 50% HIV Inhibition (Confidence Interval) [3, 5] | Combination Indices at 75% HIV Inhibition (Confidence Interval) [3, 5] | Combination Indices at 90% HIV Inhibition (Confidence Interval) [3, 5] | Combination Indices at 50% HIV Inhibition (Confidence Interval) [3, 6] | Combination Indices at 75% HIV Inhibition (Confidence Interval) [3, 6] | Combination Indices at 90% HIV Inhibition (Confidence Interval) [3, 6] | Combination Indices at 50% HIV Inhibition (Confidence Interval) [3, 7] | Combination Indices at 75% HIV Inhibition (Confidence Interval) [3, 7] | Combination Indices at 90% HIV Inhibition (Confidence Interval) [3, 7] | Overall Result of two-drug combination [3] | EC50 ([1]; MT-2 cells infected with HIV-1 LAI, MOI 0.005, 5 days, single drug) [nM] | Overall Result of two-drug combination ([3]; listed as enfuvurtide) |
| --- | --- | --- | --- | --- | --- | --- | --- | --- | --- | --- | --- | --- | --- | --- |
| c1cc(CN2CCCNCCNCCCNCC2)ccc1CN1CCCNCCNCCCNCC1 [AMD-3100] | 4 | No significant cytotoxicity | 0.51 (0.34, 0.69) | 0.63 (0.33, 0.94) | 0.89 (0.22, 1.57) | 0.65 (0.49, 0.80) | 0.55 (0.37, 0.74) | 0.58 (0.27, 0.89) | 0.56 (0.38, 0.73) | 0.62 (0.18, 0.90) | 0.74 (0.22, 1.26) | moderate synergistic | – | – |
| enfuvirtide | – | No significant cytotoxicity | 0.17 (0.13, 0.21) | 0.42 (0.29, 0.55) | 1.03 (0.49, 1.58) | 0.14 (0.11, 0.18) | 0.30 (0.21, 0.39) | 0.65 (0.32, 0.97) | 0.26 (0.21, 0.31) | 0.46 (0.34, 0.58) | 0.82 (0.46, 1.18) | Moderate- | 6 | moderate synergistic |
| CON(Cc1ccc(F)cc1)C(=O)C=C(O)C(=O)O [Compound 2, 3-[(4-Fluorobenzyl)methoxycarbamoyl]-2-hydroxyacrylic acid] | 84 | No significant cytotoxicity | 0.42 (0.32, 0.52) | 0.49 (0.33, 0.64) | 0.57 (0.28, 0.85) | 0.38 (0.30, 0.46) | 0.42 (0.30, 0.55) | 0.48 (0.26, 0.69) | 0.46 (0.34, 0.59) | 0.66 (0.41, 0.92) | 0.96 (0.37, 1.54) | Synergistic | – | – |
